In BindingDB's records for doi:10.1124/mol.64.6.1283 (Barrow Neurological Institute, 2003):

Target: Neuronal acetylcholine receptor subunit alpha-4 (Homo sapiens, UniProt P43681)
Sequence (P43681 whole entry): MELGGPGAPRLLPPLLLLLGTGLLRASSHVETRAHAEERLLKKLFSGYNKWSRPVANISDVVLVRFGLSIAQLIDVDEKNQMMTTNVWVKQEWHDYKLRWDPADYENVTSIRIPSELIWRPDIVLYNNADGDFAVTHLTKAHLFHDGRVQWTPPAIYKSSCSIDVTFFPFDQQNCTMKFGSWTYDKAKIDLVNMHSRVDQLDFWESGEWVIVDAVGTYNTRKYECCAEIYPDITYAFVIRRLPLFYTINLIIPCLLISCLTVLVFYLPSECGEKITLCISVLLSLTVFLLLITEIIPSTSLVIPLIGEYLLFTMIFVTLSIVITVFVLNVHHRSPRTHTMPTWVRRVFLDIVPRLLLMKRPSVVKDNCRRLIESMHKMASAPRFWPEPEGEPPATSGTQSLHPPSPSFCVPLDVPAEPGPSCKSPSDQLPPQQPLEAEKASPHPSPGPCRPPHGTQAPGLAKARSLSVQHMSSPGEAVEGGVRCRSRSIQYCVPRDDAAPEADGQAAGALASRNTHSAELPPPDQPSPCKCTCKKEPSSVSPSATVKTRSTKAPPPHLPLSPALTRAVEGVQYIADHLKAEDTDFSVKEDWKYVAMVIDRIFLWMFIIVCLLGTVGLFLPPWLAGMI

SMILES	Ki [nM]
C[N+]1(C)CCN(c2ccccc2)CC1 [DMPP]	20
C=CC[N+]12CCC34c5ccccc5N5C=C6C7CC8C9(CC[N+]8(CC=C)CC7=CCO)c7ccccc7N(C=C(C(CC31)C(=CCO)C2)C54)C69 (centres undefined) [NSC_5311001]	> 10000
C[N+](C)(C)CCCCCCCCCC[N+](C)(C)C [Decamethonium Iodide]	1300
CC(=O)OC1CC2CCC3C(CCC4(C)C3CC([N+]3(C)CCCCC3)C4OC(C)=O)C2(C)CC1N1CCCCC1 (centres undefined) [CAS_39764]	> 10000
CC(=O)SCC[N+](C)(C)C [ATC]	170
C[N+](C)(C)CCCCCC[N+](C)(C)C [Hexamethoniumdibromide]	> 10000
C[N+](C)(C)CCOC(=O)CCCCCCC(=O)OCC[N+](C)(C)C [NSC_123990]	13
C[N+](C)(C)CCOC(N)=O [(2-Hydroxyethyl)trimethyl ammonium chloride carbamate]	150
CNC(=O)Oc1ccc2c(c1)C1(C)CCN(C)C1N2C (centres undefined) [1,3a,8-trimethyl-1H,2H,3H,3aH,8H,8aH-pyrrolo[2,3-b]indol-5-yl N-methylcarbamate]	> 10000
C[N+](C)(C)CCOC(=O)CCC(=O)OCC[N+](C)(C)C [2,2'-[(1,4-dioxobutane-1,4-diyl)bis(oxy)]bis(N,N,N-trimethylethanaminium)]	2900
O=c1cccc2n1CC1CNCC2C1 (centres undefined) [CAS_485-35-8]	0.24
CCN1CC2(COC(=O)c3ccccc3-n3c(O)cc(C)c3O)CCC(OC)C34C5CC6C(OC)CC(O)(C5C6OC)C(O)(C(OC)C23)C14 (centres undefined) [CAS_21019-30-7]	2800
CC(=O)OC1CC2CCC3C(CCC4(C)C3CC([N+]3(C)CCCCC3)C4OC(C)=O)C2(C)CC1[N+]1(C)CCCCC1 (centres undefined) [NSC_27350]	> 10000
COc1cc2c3cc1Oc1cc(ccc1O)C[C@H]1c4c(cc(OC)c(O)c4Oc4ccc(cc4)C[C@@H]3N(C)CC2)CC[N+]1(C)C [CAS_57-94-3]	2000
